Patent publication US10717727B2, “Pyridinium compounds” (TORRENT PHARMACEUTICALS LIMITED, priority 2015, dated 2020)

Test system: Diabetic rats
Experiment: In vivo study of effect on Nerve Conduction Velocity (NCV) in streptozotocin-induced diabetic rats
Details: 150 mg/kg, 8 weeks of treatment after 12 weeks of diabetes, streptozotocin diabetic male Wistar rats; compared with diabetic control rats treated with vehicle; ***p<0.001 by student's t-test (FIG. 1)
Procedure: Motor nerve conduction velocity evaluation was performed as a measure of AGE related diabetic complications.
In vivo study to evaluate effect of compound of present invention on Nerve Conduction Velocity
Healthy male Wistar rats, 170-250 g, 6-10 weeks old, were selected for the study. The animals were divided into two groups i.e. a non-diabetic control group (Normal Control Rats) and a diabetic group. Diabetes was induced (in the diabetic group of animals) by a single intraperitoneal injection of streptozotocin (60 mg/kg body weight) dissolved in citrate buffer (pH 4.5) (Biro et al; Brain Research Bulletin (1997) 44(3): 259-263). […]
150 mg/kg of Compound No 1 was administered to diabetic rats and diabetic control group was treated with vehicle for Compound 1. The rats were monitored throughout the experiment for water intake, food intake, changes in body weight, blood biochemistry parameters, urine parameters and mortality. […]
After 8 weeks of treatment NCV was estimated as described by Biro et al, (1997). […] Electromyograms (EMG's) from the plantar muscles were amplified and recorded using a data acquisition system (MacLab®, ADI instruments). […] Latency and the duration of the M responses were measured and the motor nerve conduction velocity (MNCV) was calculated. […]
Anode was placed in proximity to the cathode. Upon stimulation of the nerve, responses (EMG) were recorded from the plantar surface. […]

## CS(=O)(=O)NNC(=O)c1ccc[n+](CC(=O)c2cccs2)c1 [Compound 1]
  Nerve Conduction Velocity (NCV): improvement in NCV
